{"source": "patent US6468476B1", "about": "“Methods for using-co-regulated genesets to enhance detection and classification of gene expression patterns” (Rosetta Inpharmatics, Inc., priority 1998, dated 2002)", "test_system": "genesets (calcineurin-mediated, Gcn4-mediated)", "experiment": "Response profiles projected onto genesets defined by cluster analysis of 34 experiments", "type": "cell-based, Saccharomyces cerevisiae", "conditions": "HU at 3.1 mM", "method": "Yeast (Saccharomyces cerevisiae, Strain YPH499, see, Sikorski and Hieter, 1989, A system of shuttle vectors and yeast host strains designated for efficient manipulation of DNA in Saccharomyces cerevisiae, Genetics 122:19-27) cells were grown in YAPD at 30° C. to an OD600 of 1.0 (±0.2), and total RNA prepared by breaking cells in phenol/chloroform and 0.1% SDS by standard procedures (Ausubel et al., 1995, Current Protocols in Molecular Biology, Greene Publishing and Wiley-Interscience, New York, Ch. 13). Poly(A)^+ RNA was selected by affinity chromatography on oligo-dT cellulose (New England Biolabs) essentially as described in Sambrook et al. (Molecular Cloning—A Laboratory Manual (2nd Ed.), Vol. 1, Cold Spring Harbor Laboratory, Cold Spring Harbor, N.Y., 1989). First strand cDNA synthesis was carried out with 2 μg poly(A)^+ RNA and SuperScript™ II reverse transcriptase (Gibco-BRL) according to the manufacturer's instructions with the following modifications. […]\nFluorescently-labeled cDNAs (2-6 μg) are resuspended in 4×SSC plus 1 μg/μl tRNA as carrier and filtered using […] filters (Millipore, Bedford, Mass.). […] Microarrays are scanned with a fluorescence laser-scanning device as previously described (Schena et al., 1995, Science 270:467-470; Schena et al., 1995, Proc. Natl. Acad. Sci. USA 93:[…]) and the results (including the positions of perturbations) are recorded. […]", "data": [{"smiles": "NC(=O)NO", "note": "[HU, Hydroxyurea]", "values": [{"measurement": "Projected profile", "result": "very weak"}]}]}
